The values below come from patent US20140348850A1, “METHOD FOR REDUCING BLOOD PRESSURE USING INHIBITORS OF PLASMA KALLIKREIN” (JOSLIN DIABETES CENTER, priority 2008, published 2014).

In assay [1] the test system is Ang-II-induced hypertension. As to the kind of experiment: BP-lowering effect in Ang-II-induced rat hypertension model (telemetry). Format: in vivo. Conditions: rats infused with Ang-II 300 ng/kg/min; ASP-440 16 ƒg/kg/hr by subcutaneous osmotic pump; vs Ang-II alone. The text has this:
FIG. 1 is a graph showing the time course of systolic blood pressure (SBP) measured using telemetry in rats infused with Ang-II in the absence or presence of ASP-440. * and † indicate p<0.05 for Day 0 vs Ang-II alone (n=4) and Ang-II+ASP-440 (n=7), respectively. ‡ indicates p<0.05 for Ang-II alone vs Ang-Il^+ ASP-440. NS indicates statistically non-significant change from Day 0.
Rats were infused continuously with Ang-II, and concurrently with either ASP-440 or vehicle control. Treatments were achieved by the use of subcutaneous implantation of two sets of Alzet mini-osmotic pumps (DURECT corporation, Cupertino Calif.), one containing Ang-II, the other containing either ASP-440 or vehicle control. Angll (EMD Chemicals Inc, La Jolla, Calif.) was delivered at 300 ng/kg/min. ASP-440 was delivered at 16 ƒg/kg/hr, and control pumps were filled with vehicle (10% polyethylene glycol, 90% phosphate-buffered saline).
Blood pressure measurements by telemetry were performed using PA-C40 transmitters (Data Sciences International, St. Paul, Minn.). […] Rats were housed individually on a receiver pad and blood pressure was monitored continuously. […] Baseline readings (Day 0) were obtained 48 hours after catheter implantation, following implantation of Alzet mini-pumps.

Assay [2] deals with retinal vasculature of diabetic rats. Nature of the assay: Retinal vessel diameters, mean circulation time and retinal blood flow in STZ-diabetic rats (video fluorescein angiography). The class given is in vivo, Sprague Dawley rats. The method, then:
FIGS. 2A and 2B are graphs showing normalized retinal blood flow (FIG. 2A) and increased blood vessel diameter (FIG. 2B) following ASP-440 administration in diabetic rats.
We examined the effect of ASP-440 on retinal vessel diameters, mean circulation times (MCT), and retinal blood flow (RBF) in rats with diabetes. Diabetes was induced in Sprague Dawley rats with an intraperitoneal injection of 55 mg/kg of streptozotocin (STZ) (Sigma, St. Louis, Mo., USA) in 10 mmol/l citrate buffer, pH 4.5 after a 12 h fast. Diabetes was confirmed with blood glucose measurements (>14 mmol/l) 24 h after STZ injection. The rats were housed under standard conditions with free access to water and standard food. Two weeks after diabetes onset rats were implanted with a subcutaneous osmotic model 2002 Alzet pump containing either 12 mg/ml ASP-440 or saline vehicle. Rats were infused for 2 weeks at a rate of 0.5 μg/hr. Retinal vessel diameters and MCT was measured after 4 weeks of total diabetes duration and RBF was calculated as described by Horio et al. (Diabetologia 47:113-23, 2004).
To make the measurements described above, the following procedure was used. […] The recorded fluorescein angiograms were digitized on a frame-by-frame basis and analyzed densitometrically to determine retinal vessel diameters and retinal mean circulation times (MCTs), as described by Horio et al. (supra). […] Vessel diameters in units of pixels were determined during peak fluorescein arterial and venous filling times at the defined vessel sample sites using a boundary-crossing algorithm. The average diameter for each vessel was measured for each sample site. […] At the fixed vessel sites, the average vessel fluorescence within a sample area defined by the vessel width was measured on a frame-by-frame basis to generate temporal fluorescence intensity or dye dilution curves. The resultant artery and vein fluorescence data were fit to a log normal distribution function from which average arterial and venous circulation times were calculated. […]

Where [3] appears, read: 2 weeks subcutaneous pump infusion (12 mg/ml ASP-440), vs diabetic rats receiving vehicle.

As for `N=C(N)c1ccc(CNC(=O)c2cnn(Cc3ccccc3)c2)cc1` [ASP-440, 1-Benzyl-1H-pyrazole-4-carboxylic acid 4-carbamimidoyl-benzylamide], in assay [1], the “blood pressure (systolic, telemetry)” value is on record as “capable of reducing blood pressure”. Besides, in assay [2] (setting [3]), the “retinal blood flow (RBF)” value is recorded as “increased RBF” and the “retinal mean circulation time (MCT)” value is recorded as “shortened MCT”. Also, the “retinal artery and vein diameters” value in assay [2] (2 weeks subcutaneous pump infusion, vs nondiabetic rats and saline-treated diabetic rats) is “increased retinal artery and vein diameters”.
